Measured values published in ChEMBL document CHEMBL1201862, “PubChem BioAssay data set” (2004).
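Five compound concentrations were applied to cells in 96-well plates for 48 hours; endpoints were derived by simple linear interpolation of the resulting dose-response curve. GI50 is the concentration that inhibits growth by half.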 Activity calls are given as the source filed them. No stated cut-off is given here; in the data, active = GI50 up to about 1.1 µM and inactive = higher.

Columns and labels:
Experiment in all cases: DTP human tumour cell line panel, 48 h
T47D = system: T47D
UACC-257 = system: UACC-257
OVCAR-3 = system: OVCAR-3
U-251 = system: U-251
SK-MEL-5 = system: SK-MEL-5
MOLT-4 = system: MOLT-4
IGROV-1 = system: IGROV-1
SK-OV-3 = system: SK-OV-3
NCI-H460 = system: NCI-H460
TK-10 = system: TK-10
NCI-H522 = system: NCI-H522
SNB-75 = system: SNB-75
BT-549 = system: BT-549
NCI-H226 = system: NCI-H226
HCC 2998 = system: HCC 2998
SN12C = system: SN12C
A549 = system: A549
Hs-578T = system: Hs-578T
MDA-N = system: MDA-N
A498 = system: A498
LOX IMVI = system: LOX IMVI
MDA-MB-231 = system: MDA-MB-231
ACHN = system: ACHN
HCT-15 = system: HCT-15
MCF7 = system: MCF7
OVCAR-4 = system: OVCAR-4
HOP-62 = system: HOP-62
EKVX = system: EKVX
HL-60 = system: HL-60
RPMI-8226 = system: RPMI-8226
COLO 205 = system: COLO 205
UACC-62 = system: UACC-62
K562 = system: K562
786-0 = system: 786-0
SF-295 = system: SF-295
PC-3 = system: PC-3
KM12 = system: KM12
SNB-19 = system: SNB-19
SF-268 = system: SF-268
Malme-3M = system: Malme-3M
SK-MEL-28 = system: SK-MEL-28
OVCAR-5 = system: OVCAR-5
NCI-H23 = system: NCI-H23
MDA-MB-435 = system: MDA-MB-435
RXF 393 = system: RXF 393
HT-29 = system: HT-29
SF-539 = system: SF-539
CCRF-CEM = system: CCRF-CEM
CAKI-1 = system: CAKI-1
M14 = system: M14
SW-620 = system: SW-620
SK-MEL-2 = system: SK-MEL-2
HCT-116 = system: HCT-116
NCI/ADR-RES = system: NCI/ADR-RES
DU-145 = system: DU-145
OVCAR-8 = system: OVCAR-8
HOP-92 = system: HOP-92
UO-31 = system: UO-31

Measured: GI50

CCOC(=O)c1c(-c2ccc(Br)cc2)ccn1C
> 10 µM: HCT-15
inactive: T47D > 10 µM | UACC-257 > 10 µM | OVCAR-3 > 10 µM | U-251 > 10 µM | SK-MEL-5 > 10 µM | MOLT-4 > 10 µM | IGROV-1 > 10 µM | SK-OV-3 > 10 µM | NCI-H460 > 10 µM | TK-10 > 10 µM | NCI-H522 > 10 µM | SNB-75 > 10 µM | BT-549 > 10 µM | NCI-H226 > 10 µM | HCC 2998 > 10 µM | SN12C > 10 µM | A549 > 10 µM | Hs-578T > 10 µM | MDA-N > 10 µM | A498 > 10 µM | LOX IMVI > 10 µM | MDA-MB-231 > 10 µM | ACHN > 10 µM | MCF7 > 10 µM | OVCAR-4 > 10 µM | HOP-62 > 10 µM | EKVX > 10 µM | HL-60 > 10 µM | RPMI-8226 > 10 µM | COLO 205 > 10 µM | UACC-62 > 10 µM | K562 > 10 µM | 786-0 > 10 µM | SF-295 > 10 µM | PC-3 > 10 µM | KM12 > 10 µM | SNB-19 > 10 µM | SF-268 > 10 µM | Malme-3M > 10 µM | SK-MEL-28 > 10 µM | OVCAR-5 > 10 µM | NCI-H23 > 10 µM | MDA-MB-435 > 10 µM | RXF 393 4.65 µM | HT-29 > 10 µM | SF-539 > 10 µM | CCRF-CEM > 10 µM | CAKI-1 > 10 µM | M14 > 10 µM | SW-620 > 10 µM | SK-MEL-2 > 10 µM | HCT-116 > 10 µM | NCI/ADR-RES > 10 µM | DU-145 > 10 µM | OVCAR-8 > 10 µM

Cc1c(-c2nc3ccccc3[nH]2)c(=O)n(-c2ccccc2)n1C
inactive: T47D > 100 µM | UACC-257 > 100 µM | OVCAR-3 > 100 µM | U-251 > 100 µM | SK-MEL-5 > 100 µM | MOLT-4 > 100 µM | IGROV-1 > 100 µM | SK-OV-3 > 100 µM | NCI-H460 > 100 µM | TK-10 > 100 µM | NCI-H522 > 100 µM | SNB-75 > 100 µM | BT-549 > 100 µM | NCI-H226 > 100 µM | HCC 2998 > 100 µM | SN12C > 100 µM | A549 > 100 µM | Hs-578T > 100 µM | MDA-N > 100 µM | LOX IMVI > 100 µM | MDA-MB-231 > 100 µM | ACHN > 100 µM | MCF7 > 100 µM | OVCAR-4 > 100 µM | HOP-62 > 100 µM | EKVX > 100 µM | HL-60 > 100 µM | RPMI-8226 > 100 µM | COLO 205 > 100 µM | UACC-62 > 100 µM | K562 > 100 µM | 786-0 > 100 µM | SF-295 > 100 µM | PC-3 > 100 µM | KM12 > 100 µM | SNB-19 > 100 µM | SF-268 > 100 µM | Malme-3M > 100 µM | SK-MEL-28 > 100 µM | HOP-92 > 100 µM | NCI-H23 > 100 µM | MDA-MB-435 > 100 µM | RXF 393 > 100 µM | HT-29 > 100 µM | SF-539 > 100 µM | CCRF-CEM > 100 µM | CAKI-1 > 100 µM | M14 > 100 µM | SW-620 > 100 µM | SK-MEL-2 > 100 µM | HCT-116 > 100 µM | NCI/ADR-RES > 100 µM | DU-145 > 100 µM | OVCAR-8 > 100 µM | UO-31 > 100 µM
> 100 µM: HCT-15
